Laboratory results published in patent US20210000814A1, “RIMEGEPANT FOR CGRP RELATED DISORDERS” (Biohaven Pharmaceutical Holding Company Ltd., priority 2018, published 2021).

Tests used:
[1] = human, in vivo
Experimental: Clinical Trial—BHV3000-303: Phase 3: Double-Blind, Randomized, Placebo-Controlled, Safety and Efficacy Trial of BHV-3000 (Rimegepant) Orally Discintegrating Tablet (ODT) for the Acute Treatment of Migraine (ClinicalTrials.gov Identifier: NCT03461757) • A phase 3 clinical study was conducted with 1812 participants, as follows.
Study Design • Study Type: Interventional (Clinical Trial) • Actual Enrollment: 1812 participants • Allocation: Randomized • Intervention Model: Parallel Assignment • Masking: Triple (Participant, Care Provider, Investigator) • Primary Purpose: Treatment • Official Title: BHV3000-303: Phase 3, Double-Blind, Randomized, Placebo Controlled, Safety and Efficacy Trial of BHV-3000 (Rimegepant) Orally Disintegrating Tablet (ODT) for the Acute Treatment of Migraine • Actual Study Start Date: Feb. 27, 2018 • Actual Primary Completion Date: Oct. 8, 2018 • Actual Study Completion Date: Oct. 15, 2018

[2] = BHV3000-302 Phase 3 trial: safety and tolerability; type: in vivo, human; details: Study 302
Experimental: In a double-blind, randomized, placebo-controlled, multicenter study (Study 302, NCT03237845) adults […] of age with at least a 1-year history of ICHD 3-beta migraine were eligible to participate. Following a 3- to 28-day screening period, subjects were randomized to receive rimegepant 75 mg or matching placebo and instructed to treat a single migraine attack with 1 dose of the blinded study drug (rimegepant or placebo) when headache pain reached moderate or severe intensity. The coprimary endpoints were pain freedom at 2 hours postdose and freedom from the most bothersome symptom (MBS) at 2 hours postdose. Safety assessments included adverse events (AEs), ECGs, vital signs, physical measurements, and routine laboratory tests, including assessment of liver function. Unless stated otherwise, values presented are mean±SD.

[3] = test system: patients with migraine; experiment: BHV3000-201: reduction in headache days (migraines) per month, treatment vs observation phase; type: in vivo, human
Text: Study Design • Study Type: Interventional (Clinical Trial) • Estimated Enrollment: 2000 participants • Intervention Model: Single Group Assignment • Masking: None (Open Label) • Primary Purpose: Treatment • Official Title: A Multicenter, Open Label Long-Term Safety Study of BHV3000 in the Acute Treatment of Migraine • Actual Study Start Date: Aug. 30, 2017 • Estimated Primary Completion Date: July 2019 • Estimated Study Completion Date: July 2019 In addition to the interim safety analysis, data from subjects was assessed to determine reductions in the number of headache days per month.

[4] = test system: subjects with Acute Migraines; experiment: BHV3000-301 Phase 3 trial, acute treatment of migraine: efficacy; type: in vivo, human; details: Study 301; P<0.0001
Experimental: Clinical Trial—BHV3000-301: Phase 3: Double-Blind, Randomized, Placebo-Controlled, Safety and Efficacy Trial of BHV-3000 (Rimegepant) for the Acute Treatment of Migraine (ClinicalTrials.gov Identifier: NCT03235479). A phase 3 clinical study was conducted with 1490 participants, as follows. […] Pain freedom of rimegepant (75 mg tablet) compared with placebo in the acute treatment of migraine will be measured using the number of evaluable subjects that report no pain at 2 hours post-dose. [Time Frame: Two hours post dose] • Pain will be measured on a 4 point Likert scale (0=none, 1=mild, 2=moderate, 3=severe) • 2. Freedom from the most bothersome symptom (MBS) of rimegepant (75 mg tablet) compared with placebo will be measured using the number of evaluable subjects that report the absence of their MBS at 2 hours post-dose. [Time Frame: Two hours post dose] • The MBS (nausea, phonophobia or photophobia) will measured using a binary scale (0=absent, 1=present). […] [Time Frame: 2 hours -24 hours post-dose] • Sustained Pain Freedom as measured by a 4 point numeric rating scale (None, Mild, Moderate, Severe) • 2. […] [Time Frame: 2 hours post-dose] • Pain Relief as measured by a 4 point numeric rating scale (None, Mild, Moderate, Severe) • 5. […] Sustained Pain Relief as measured by a 4 point numeric rating scale (None, Mild, Moderate, Severe) • 9. […]

Question: With N[C@@H]1c2cccnc2[C@H](OC(=O)N2CCC(n3c(=O)[nH]c4ncccc43)CC2)CC[C@H]1c1cccc(F)c1F [Rimegepant, [(55,65,9R)-5-amino-6-(2,3-difluorophenyl)-6,7,8,9-tetrahydro-5H-cyclohepta[b]pyridin-9-yl]4-(2-oxo-3H-imidazo[4,5-b]pyridin-1-yl)piperidine-1-carboxylate] as the compound, how does the “LFTs >3xULN” value [1] read?
Answer: The value was “one patient”.

Question: What about the safety and tolerability [1] of the same compound?
Answer: The safety and tolerability was “consistent with the profile previously observed in Study 301”.

Question: What about the “highest incidence of any single adverse event (AE)” value ([1]; 48 h) of the same compound?
Answer: The value was no more than 1.6%.

Question: And the “bilirubin elevations greater than 2 times ULN” value [2]?
Answer: The value was “no bilirubin elevations”.

Question: What about the “transaminase level greater than 3 times ULN” value [2] of the same compound?
Answer: Its value is “No subject”.

Question: And the “safety and tolerability profile” value ([2]; 75 mg oral tablet)?
Answer: The value was “favorable tolerability and safety”.

Question: What about the “Serious AEs (SAEs)” value ([2]; back pain) of the same compound?
Answer: Its value is 1 subject.

Question: And the “subjects with > = 20.0% decrease, number” value ([3]; Overall, n 1731)?
Answer: The value was 683.

Question: What about the “subjects with > = 25.0% decrease, number” value ([3]; Overall, n 1731) of the same compound?
Answer: The value was 602.

Question: And the “subjects with > = 30.0% decrease, number” value ([3]; Overall, n 1731)?
Answer: Its value is 523.

Question: What about the “subjects with > = 35.0% decrease, number” value ([3]; Overall, n 1731) of the same compound?
Answer: Its value is 442.

Question: And the “subjects with > = 40.0% decrease, number” value ([3]; Overall, n 1731)?
Answer: The value was 362.

Question: And the “subjects with > = 45.0% decrease, number” value ([3]; Overall, n 1731)?
Answer: The value was 287.

Question: And the “subjects with > = 50.0% decrease, number” value ([3]; Overall, n 1731)?
Answer: Its value is 226.

Question: And the “onset of reductions in the mean number of headache days per month” value ([3]; Study 201)?
Answer: Its value is “as early as the first month”.

Question: And the “patients achieving normal function at 2 hours (functional disability) versus placebo” value [4]?
Answer: The value was “greater proportion”.
